Assay results from paper PMC10974275, “Pharmacokinetic Interaction of Kratom and Cannabidiol in Male Rats” (Pharmaceutics, 2024).
Read-outs that look alike come from different tables or passages of the source.

Tests used:
[1] = parameters: method as in PMID 33620222; settings: n = 4, mean ± SEM, cited from earlier work
[2] = Single-dose pharmacokinetics of concomitant cannabidiol product and kratom product; type: in vivo, male Sprague-Dawley rats; settings: for AUC0–∞/dose / CL/F / Vd/F: Single-Dose; for AUC0–∞/dose: dose-normalized; for CL/F / Vd/F: plasma; for CL/F: read-out: CL/F (apparent oral clearance) (converted); for Vd/F: read-out: V/F (apparent volume of distribution); for AUC(0-t): read-out: AUC0–24
Experimental: (§1) Male Sprague-Dawley rats (weight 250 ± 25 g) were obtained from Envigo (Indianapolis, IN, USA) with indwelling jugular vein catheters. Animals were acclimated for ≥72 h in a temperature- and humidity-controlled vivarium on a 12 h light/dark cycle. All studies were approved by the University of Florida’s Institutional Animal Care and Use Committee (IACUC) and carried out in accordance with Association for Assessment and Accreditation of Laboratory Animal Care International (AAALAC) and National Institute of Health (NIH) guidelines. In the single-dose studies, rats were fasted for 10 h prior to dosing and an additional 2 h post-dose.
(§2) For the single-dose study, rats were pretreated with 50 mg/kg cannabidiol by oral gavage and, after 30 min, were dosed with 0.8 mL/kg OPMS Gold solution. A period of 30 min was observed between doses to reduce the likelihood of interactions between the formulations in the stomach. Rats were connected to an automatic blood collection system (BASi, West Lafayette, IN, USA), and blood samples were taken pre-kratom product dose and 0.08, 0.17, 0.25, 0.5, 1, 2, 3, 4, 6, 8, 12, 18, 24, 30, 36, 42, and 48 h after kratom product dose administration. For the multiple-dose study, rats were pretreated with 25 mg/kg cannabidiol and, after 30 min, were dosed with 0.4 mL/kg OPMS Gold solution every 12 h (0900 and 2100) for a period of 4 days. Blood samples were taken prior to the 0900 dose (24, 48, 72, 96 h). […] Plasma was separated from blood by centrifugation at 850× g for 10 min at 4 °C. Samples were stored at −20 °C until analysis.
(§3) Standards were prepared by adding 2.0 μL of CS or QC stock to 18 μL of blank rat plasma. This generated eight calibration standards (5–500 ng/mL) and four QC standards (5, 8, 200, and 400 ng/mL). After spiking, the standards were vortex-mixed for 5 min at 650 rpm. Analytes were precipitated with 80 μL methanol acidified with 0.05% formic acid containing 25 ng/mL IS-1 and IS-2 (Quenching Solution; QS). Samples were transferred to a 96-well filter plate and centrifuged at 850× g for 2 min at 4 °C. Study samples were prepared in the same manner by aliquoting 20 μL and adding 80 μL QS prior to vortex mixing and filtration.
(§4) Samples were analyzed using previously validated ultraperformance liquid chromatography-tandem mass spectrometry (UPLC-MS/MS) methods for the quantification of cannabinoids and alkaloids in rat plasma. Both methods used a Waters Acquity I-Class UPLC coupled to a Xevo TQ-S micro mass spectrometer (Waters, Milford, MA, USA). The source gas was nitrogen, and the collision gas was argon. The autosampler was maintained at 10 °C.
(§5) For the cannabinoid bioanalytical method, a 1.7 µm, 2.1 x 100 mm C18 BEH column was utilized with a pre-column of the same chemistry (Waters, Milford, MA, USA) held at 40 °C. […] Cannabidiol was detected in positive electrospray ionization mode using multiple reaction monitoring.
(§6) For the peak separations of kratom alkaloids required for quantification, a 1.7 µm, […] × 100 mm C18 BEH column with a pre-column of the same chemistry (Waters, Milford, MA, USA) was utilized and held at 50 °C throughout the analysis. A gradient elution was used with mobile phase of aqueous ammonium acetate buffer [2.5 mM, pH 3.5 (A)] and acetonitrile (B). The gradient was held at 90% A for 1 min and decreased to 60% by 10 min. From 10 to 10.5 min, the percent of A was decreased sharply to 30% and was then set to initial conditions from 10.5 to 11 min to re-equilibrate the column. The alkaloids were detected in positive electrospray ionization mode using multiple reaction monitoring.
The TargetLynx™ application of MassLynx™ was used for data processing and quantification of the UPLC-MS/MS data (Waters, Milford, MA, USA). Phoenix Version 6.4 (Certara, Princeton, NJ, USA) was used to perform a non-compartmental analysis of concentration–time data. GraphPad Prism Version 8 (GraphPad Software, San Diego, CA, USA) was used to generate all figures. […]

[3] = Single oral dose pharmacokinetics of kratom product alone (control data from Kamble et al.); settings: without cannabidiol
[4] = Single oral dose pharmacokinetics of cannabidiol product alone; type: in vivo, male Sprague-Dawley rats; settings: male, Sprague-Dawley, rat, cannabidiol in plasma, single oral dose of cannabidiol product alone (50 mg/kg), n = 4, mean ± SEM
[5] = Multiple-dose (steady-state) pharmacokinetics of concomitant cannabidiol and kratom product; type: in vivo, male Sprague-Dawley rats; settings: mean ± SEM; for Accumulation Index / Fluctuation / concentration at 5 days / AUC(0-inf) / AUC / Cmax at 5 days: 5-day q12 h oral 25 mg/kg cannabidiol and kratom product (Eq. 4.7 mg/kg mitragynine); for AUC0–∞/dose / CL/F at 5 days / Vd/F at 5 days: Multiple-Dose; for AUC0–∞/dose: dose-normalized; for concentration at 5 days / CL/F at 5 days / Vd/F at 5 days / AUC(0-inf) / AUC / Cmax at 5 days: male, Sprague-Dawley, rat; for concentration at 5 days / CL/F at 5 days / Vd/F at 5 days / AUC(0-inf) / AUC: plasma; for concentration at 5 days: oral; for CL/F at 5 days / Vd/F at 5 days: po; for CL/F at 5 days: read-out: CL/F (apparent oral clearance) (converted); for Vd/F at 5 days: read-out: V/F (apparent volume of distribution); for AUC(0-inf): from time 0 (96 h) extrapolated to infinity; for AUC: over the dosing interval (12 h); for Cmax at 5 days: maximum plasma concentration at steady-state
Experimental: as §1, §2, §3, §4, §5, §6
The TargetLynx™ application of MassLynx™ was used for data processing and quantification of the UPLC-MS/MS data (Waters, Milford, MA, USA). Phoenix Version 6.4 (Certara, Princeton, NJ, USA) was used to perform a non-compartmental analysis of concentration–time data. GraphPad Prism Version 8 (GraphPad Software, San Diego, CA, USA) was used to generate all figures.

[6] = minor kratom alkaloid/metabolite in plasma, single oral dose of kratom product alone
[7] = minor kratom alkaloid/metabolite in plasma, single concomitant dose of cannabidiol and kratom product, n = 5, mean ± SEM
[8] = cannabidiol, cannabidiol plus kratom product vs cannabidiol product alone, single dose
[9] = male, Sprague-Dawley, rat, po, mean ± SEM
[10] = male, Sprague-Dawley, rat, cannabidiol in plasma, single concomitant oral dose of cannabidiol product (50 mg/kg) and kratom product (9.4 mg/kg mitragynine), n = 5, mean ± SEM
[11] = average plasma concentration at steady-state, read-out: Cavg,ss
[12] = minimum plasma concentration at steady-state, read-out: Cmin,ss
[13] = mitragynine in plasma, single oral dose of kratom product alone (9.6 mg/kg mitragynine)
[14] = male, Sprague-Dawley, rat, mitragynine in plasma, single concomitant oral dose of cannabidiol product (50 mg/kg) and kratom product (9.4 mg/kg mitragynine), n = 5, mean ± SEM
[15] = male, Sprague-Dawley, rat, po, minor kratom alkaloid/metabolite in plasma, single concomitant dose of cannabidiol and kratom product, n = 5, mean ± SEM
[16] = male, Sprague-Dawley, rat, po, minor kratom alkaloid/metabolite in plasma, single concomitant dose of cannabidiol and kratom product, n = 5, mean ± SEM, read-out: Cmax

SMILES	AUC0–24 [1, 6] [ng·h/mL]	Cmax [1, 6] [ng/mL]	Tmax [1, 6] [h]	AUC0–∞/dose ([2]; mean ± SEM) [ng·h/mL/mg/kg]	CL/F [2, 9] [mL/min/kg]	Vd/F [2, 9] [L/kg]	Accumulation Index [5]	Fluctuation [5] [%]	AUC0–∞/dose [5] [ng·h/mL/mg/kg]	concentration at 5 days [5, 11] [ng/mL]	concentration at 5 days [5, 12] [ng/mL]	CL/F at 5 days [5] [mL/min/kg]	Vd/F at 5 days [5] [L/kg]	AUC(0-inf) [5] [ng·h/mL]	AUC [5] [ng·h/mL]	Cmax at 5 days [5] [ng/mL]	Tmax [2, 15] [h]	AUC(0-t) [2, 15] [ng·h/mL]	Cmax [2, 16] [ng/mL]	also measured
CC[C@@H]1CN2CC[C@@]3(O)C(=Nc4cccc(OC)c43)[C@@H]2C[C@@H]1/C(=C\OC)C(=O)OC [7-hydroxymitragynine]	41.0 ± 7.6	4.0 ± 0.6	3.1 ± 1.7	–	–	–	–	–	–	–	–	–	–	–	–	–	–	–	–	AUC0–24 [2, 7]: 189.2 ± 27.7 ng·h/mL; Cmax [2, 7]: 17.5 ± 2.3 ng/mL; metabolite to parent (mitragynine) exposure ratio percent ([2]; with cannabidiol, single concomitant dose of cannabidiol and kratom product): 3.5%; metabolite to parent (mitragynine) exposure ratio percent [3]: 3.1%
C=C(C)[C@@H]1CCC(C)=C[C@H]1c1c(O)cc(CCCCC)cc1O [Cannabidiol]	–	–	–	97.8 ± 18.5	192	164 ± 26.3	1.8 ± 0.0	219.0 ± 42.7	140.8 ± 34.0	204 ± 51.3	80.9 ± 23.7	217	192 ± 42.1	3520 ± 851	2450 ± 615	489 ± 96.2	–	–	–	AUC0–24 Fold Change (90% CI Ratio) [2, 8]: 1.0 (0.8, 1.1); Cmax Fold Change (90% CI Ratio) [2, 8]: 0.8 (0.7, 0.9); range of 90% confidence interval values of AUC0–24 fold change ([2]; cannabidiol, coadministration with kratom vs cannabidiol alone, single dose): 0.8–1.1; Tmax [2, 10]: 6.3 ± 1 h; AUC(0-t) [2, 10]: 4180 ± 614 ng·h/mL; Cmax ([2]; male, Sprague-Dawley, rat, cannabidiol in plasma, single concomitant oral dose of cannabidiol product (50 mg/kg) and kratom product (9.4 mg/kg mitragynine), n = 5, mean ± SEM, read-out: Cmax): 491 ± 69.2 ng/mL; Cmax [4]: 589 ± 38.3 ng/mL; Tmax [4]: 3.8 ± 1.5 h; AUC(0-t) ([4]; read-out: AUC0–24): 4400 ± 319 ng·h/mL
CC[C@@H]1CN2CCc3c([nH]c4cccc(OC)c34)[C@@H]2C[C@@H]1/C(=C\OC)C(=O)OC [Mitragynine, mitragynine]	–	–	–	578.6 ± 187.9	38.3	25.8 ± 7.5	1.4 ± 0.1	90.0 ± 11.3	605.8 ± 153.1	151 ± 34.7	91.1 ± 24.9	51.7	28.7 ± 3.7	2910 ± 735	1810 ± 417	218 ± 40	–	–	–	AUC0–24 [1, 13]: 1306.8 ± 126.1 ng·h/mL; Cmax [1, 13]: 111.9 ± 15.6 ng/mL; Tmax [1, 13]: 3.1 ± 1.7 h; Tmax [2, 14]: 17 ± 4.6 h; AUC(0-t) [2, 14]: 5350 ± 1150 ng·h/mL; Cmax ([2]; male, Sprague-Dawley, rat, mitragynine in plasma, single concomitant oral dose of cannabidiol product (50 mg/kg) and kratom product (9.4 mg/kg mitragynine), n = 5, mean ± SEM, read-out: Cmax): 253 ± 68.3 ng/mL; Fluctuation ([5]; listed as mitragynine): ~100%
C=C[C@H]1CN2CCc3c([nH]c4cccc(OC)c34)[C@@H]2C[C@@H]1/C(=C\OC)C(=O)OC [Paynantheine, paynantheine]	–	3.0 ± 1.7	0.08 ± 0.0	–	–	–	–	–	–	–	–	–	–	–	–	–	16.2 ± 4.9	290 ± 96.4	19.8 ± 5.8	–
CC[C@@H]1CN2CCc3c([nH]c4cccc(OC)c34)[C@H]2C[C@@H]1/C(=C\OC)C(=O)OC [Speciociliatine, speciociliatine]	222.7 ± 22.2	23.8 ± 1.4	3.2 ± 1.6	–	–	–	–	–	–	–	–	–	–	–	–	–	17 ± 5.9	990 ± 93.7	68.1 ± 5.9	–
